Experiments:
parasitaemia = tested on: parasitaemia; set-up: method as in Baragana et al Nature, 2015,522,315; settings: at 0.57 mg/kg; ref Baragana et al Nature, 2015,522,315; cited from earlier work
[1] = tested on: Aspergillus terreus JMRC:SF:06307; assay: spore inhibition test; assay type: cell-based; settings: 48 h; start concentration 1 mg/ml (1o, 2o), 100 µg/ml (Amphotericin B)
Method: (§1) The following test organisms were used for their susceptibility to compounds 1o and 2o: Alternaria alternata JMRC:SF:09317, Arthroderma benhamiae JMRC:ST:35888, Aspergillus fumigatus JMRC:Afum:00073=ATCC 46645, Aspergillus terreus JMRC:SF:06307, Candida albicans JMRC:ST:35864, Lichtheimia corymbifera JMRC:SF:09682, Penicillium chrysogenum JMRC:SF:10137, Rhizopus arrhizus (syn. R. oryzae) JMRC:SF:05857=ATCC 56536, CBS 112.07.
(§2) Fungi were grown on 3% malt extract solidified medium for 1 to 2 weeks at room temperature. Then the plates were washed with 7 ml sterile distilled water, and the spore suspension was filtered through 4 layers of sterile Miracloth (Kalbiochem, USA) to remove the hyphae. The concentration of the spore suspension was set to 2 × 10^4 conidia ml^−1 for the in vitro assays.
(§3) The spore inhibition assay took place in 96-well microplates (flat base). 50 μl of the prepared spore suspension was seeded and then mixed with 50 μl of the respective inhibitor substance. Tests were started with end concentrations of 1 mg ml^−1 and were then reduced in a minimum of 10 halving steps. Thus a 2 mg ml^−1 stock solution diluted in half ten times with solvent (distilled water, 2% DMSO in distilled water, or 2% DMF in distilled water) and each 50 μl was transferred to 50 μl spore suspension. For each test substance, 12 holes on the microtiter plate were filled. After 24 h incubation (25 °C), the germination of the spores was macroscopically and microscopically examined directly in the microtiter plate via measurement of the optical density and light microscopy using an inverse stereomicroscope with subsequent photodocumentation, respectively. If necessary, the plates were further incubated for another 24 or 48 h, depending on the extent of fungal germination.

[2] = tested on: Aspergillus fumigatus JMRC:Afum:00073; assay: spore inhibition test; assay type: cell-based; settings: 48 h; start concentration 1 mg/ml (1o, 2o), 100 µg/ml (Amphotericin B)
Method: as §1, §2, §3

[3] = tested on: Arthroderma benhamiae JMRC:ST:35888; assay: spore inhibition test; assay type: cell-based; settings: 72 h; start concentration 1 mg/ml (1o, 2o), 100 µg/ml (Amphotericin B)
Method: as §1, §2, §3

[4] = tested on: Lichtheimia corymbifera JMRC:SF:09682; assay: spore inhibition test; assay type: cell-based; settings: 48 h; start concentration 1 mg/ml (1o, 2o), 100 µg/ml (Amphotericin B)
Method: as §1, §2, §3

[5] = tested on: Rhizopus arrhizus (syn. R. oryzae) JMRC:SF:05857; assay: spore inhibition test; assay type: cell-based; settings: 48 h; start concentration 1 mg/ml (1o, 2o), 100 µg/ml (Amphotericin B)
Method: as §1, §2, §3

[6] = tested on: Candida albicans JMRC:ST:35864; assay: spore inhibition test; assay type: cell-based; settings: 48 h; start concentration 1 mg/ml (1o, 2o), 100 µg/ml (Amphotericin B)
Method: as §1, §2, §3

[7] = tested on: Alternaria alternata JMRC:SF:09317; assay: spore inhibition test; assay type: cell-based; settings: 48 h; start concentration 1 mg/ml (1o, 2o), 100 µg/ml (Amphotericin B)
Method: as §1, §2, §3

[8] = tested on: Penicillium chrysogenum JMRC:SF:10137; assay: spore inhibition test; assay type: cell-based; settings: 48 h; start concentration 1 mg/ml (1o, 2o), 100 µg/ml (Amphotericin B)
Method: as §1, §2, §3

[9] = tested on: Candida albicans JMRC:STI:25000; assay: agar diffusion inhibition zone test; assay type: cell-based; settings: 1o, 2o 1,000 µg/ml in DMSO, amphotericin B 10 µg/ml, solvent DMSO 0, read-out: inhibition zone diameter, Candida albicans (H8)
Method: (§4) The following organisms were tested at the Hans Knöll Institute in Jena, for their susceptibility to the compounds 1o and 2o: Bacillus subtilis JMRC:STI:10880, Staphylococcus aureus JMRC:ST:10760, Escherichia coli JMRC:ST:33699, Pseudomonas aeruginosa JMRC:ST:33772, Pseudomonas aeruginosa JMRC:ST:337721, Staphylococcus aureus JMRC:ST:33793 (multi-resistant), Enterococcus faecalis JMRC:ST:33700 (Vancomycin-resistant), Mycobacterium vaccae JMRC:STI:10670, Sporobolomyces salmonicolor (Basidiomycetes yeast) JMRC:ST:35974, Candida albicans (Ascomycetes yeast) JMRC:STI:25000, Penicillium notatum JMRC:STI:50164.
(§5) The bacteria were propagated in Mueller Hinton Broth (Oxoid)[49]. Yeast was propagated in YPD (yeast extract peptone dextrose): 1% yeast extract, 10 g; 2% peptone, 20 g; 2% agar, 20 g; 2% dextrose (glucose), 20 g; Sigma-Y1375. All bacteria and yeast suspensions were freshly made. The cultures were incubated at 37 °C for 16 h. Afterwards, the bacteria concentration from each culture was determined, and 34 ml of nutrient agar was loaded with 10^7 cells. These cultures were stored at 6-8 °C and could be used for seven days for the preparation of test plates. 34 ml of nutrient agar was liquefied and inoculated with the calculated amount of inoculum bacteria suspension at 48–50 °C, a temperature suitable for vegetative forms of bacteria. The inoculated nutrient media (34 ml each) were immediately poured into the prepared test plates (3 mm layer). With a punching device, 12 holes per test plate were punched out. For inhibiting bacterial growth, ciprofloxacin was used as a reference substance. The test substances were dissolved in distilled water, and 5 μg ml^−1 and 50 μl was added to each bacterial culture. For inhibition of fungal growth, amphotericin B served as the reference substance. The test substances were diluted to 10 μg ml^−1 in DMSO/methanol; 50 μl was added to each culture.
(§6) Configuring the test plate; volumes/punched hole: 50 μl; test solutions/test plate: 1 × 50 μl reference substance. Test plates were cultivated for 18 h at 37 °C. Analysis: Reading the inhibition zones (IZ): As IZ, the zone in which no growth can be determined with the naked eye is measured; the tiniest colonies on the edge of the inhibition zone were therefore not taken into consideration. The diameter (φ) of the IZ is measured in mm. The analysis of IZ φ is carried out internationally with the help of statistic procedures, especially regression analysis. With each test approach, the reference substance was brought along as a control; if there were deviations from allowed IZ φ, the test was repeated.
(§7) The inhibition of bacterial growth was determined using bacterial cultures grown in Müller-Hinton Bouillon, which was configured at barely visible opacity with the McFarland Standard Nr. 0.5, which indicates a bacterial density of 10^8 ml^−1. This bacterial suspension was diluted with Müller-Hinton Bouillon using 2-fold dilution series in the agar diffusion test.
(§8) Analysis: The growth in the inhibition zones around the holes containing active substances is thereby compared with the growth in the growth control (no active substance). Bacterial growth was determined according to four measurements: p=presence of colonies in the inhibition zone, P=presence of many colonies in the inhibition zone, A=indication of inhibition, F=facilitation.

[10] = tested on: Penicillium notatum JMRC:STI:50164; assay: agar diffusion inhibition zone test; assay type: cell-based; settings: 1o, 2o 1,000 µg/ml in DMSO; amphotericin B 10 µg/ml; solvent DMSO 13p
Method: as §4, §5, §6, §7, §8

[11] = tested on: Sporobolomyces salmonicolor JMRC:ST:35974; assay: agar diffusion inhibition zone test; assay type: cell-based; settings: 1o, 2o 1,000 µg/ml in DMSO; amphotericin B 10 µg/ml; solvent DMSO 20p
Method: as §4, §5, §6, §7, §8

[12] = tested on: hepatic cell line (HepG2); settings: cited from earlier work
[13] = tested on: adult Schistosoma mansoni; settings: no longer toxic at 1 μM; cited from earlier work
[14] = tested on: hepatic cell line (HepG2); assay: cytotoxicity on hepatic cell line (literature); assay type: cell-based

Structure (SMILES): O=C(NCCN1CCCC1)c1cc(-c2ccc(CN3CCOCC3)cc2)nc2ccc(F)cc12 [DDD107498]
- reduction in parasitaemia (parasitaemia): 90%

Structure (SMILES): C[C@@H]1[C@H](O)[C@@H](C)/C=C/C=C/C=C/C=C/C=C/C=C/C=C/[C@H](O[C@@H]2O[C@H](C)[C@@H](O)[C@H](N)[C@@H]2O)C[C@@H]2O[C@](O)(C[C@@H](O)C[C@@H](O)[C@H](O)CC[C@@H](O)C[C@@H](O)CC(=O)O[C@H]1C)C[C@H](O)[C@H]2C(=O)O [Amphotericin B, amphotericin B, reference compound]
- antifungal profile, 1st value = microscopic visualization-based observation, Aspergillus terreus [1]: 50
- antifungal profile, 2nd value = optical density-based observation, Aspergillus terreus [1]: 0.2
- antifungal profile, 1st value = microscopic visualization-based observation, Aspergillus fumigatus [2]: 3.12
- antifungal profile, 2nd value = optical density-based observation, Aspergillus fumigatus [2]: 0.4
- antifungal profile, 1st value = microscopic visualization-based observation, Arthroderma benhamiae [3]: 3.12
- antifungal profile, 2nd value = optical density-based observation, Arthroderma benhamiae [3]: 0.2
- antifungal profile, 1st value = microscopic visualization-based observation, Lichtheimia corymbifera [4]: < 0.05
- antifungal profile, 2nd value = optical density-based observation, Lichtheimia corymbifera [4]: < 0.05
- antifungal profile, 1st value = microscopic visualization-based observation, Rhizopus arrhizus [5]: 25
- antifungal profile, 2nd value = optical density-based observation, Rhizopus arrhizus [5]: 1.56
- antifungal profile, 1st value = microscopic visualization-based observation, Candida albicans [6]: 0.4
- antifungal profile, 2nd value = optical density-based observation, Candida albicans [6]: 0.2
- antifungal profile, 1st value = microscopic visualization-based observation, Alternaria alternata [7]: 0.78
- antifungal profile, 2nd value = optical density-based observation, Alternaria alternata [7]: 0.1
- antifungal profile, 1st value = microscopic visualization-based observation, Penicillium chrysogenum [8]: 100
- antifungal profile, 2nd value = optical density-based observation, Penicillium chrysogenum [8]: 1.56
- zone of inhibition at 10 µg/mL [9]: 21 mm
- inhibition zone diameter, Penicillium notatum (P1) [10]: 19p
- inhibition zone diameter, Sporobolo. salmonicolor (H4) [11]: 18p

Structure (SMILES): O=C(C1CCCCC1)N1CC(=O)N2CCc3ccccc3C2C1 (stereo not drawn) [praziquantel]
- IC50 [12]: 165 µM
- concentration toxic for schistosomes in vitro [13]: 5 to 10 µM
- selectivity index ([14]; HepG2 IC50 with respect to adult worms treated in vitro with 5 µM): 33
- selectivity index ([14]; HepG2 IC50 with respect to adult worms treated in vitro with 10 µM): 16.5

— PMC5321741, “Arylmethylamino steroids as antiparasitic agents” (Nature Communications, 2017)
